Test results as given in the NIST ThermoML archive (doi:10.1021/acs.jced.5b00259).
Numbers after ± are expanded uncertainties.

Assays:
[1] = 100 kPa, Liquid
[2] = xn = mol fraction of the nth substance listed; settings: 100 kPa, Liquid, x2 = 0

CC[NH+]=C(N(C)C)N(C)C.O=S(=O)([N-]S(=O)(=O)C(F)(F)F)C(F)(F)F
[1]
Settings | mass density [kg/m3] | viscosity [mPa·s]
293.15 K | 1414.89 ± 12 | 74.61 ± 5.5
298.15 K | 1410.03 ± 12 | 58.86 ± 2.3
303.15 K | 1405.19 ± 12 | 47.27 ± 2.3
308.15 K | 1400.38 ± 12 | 38.71 ± 1.8
313.15 K | 1395.59 ± 12 | 32.2 ± 1.5
318.15 K | 1390.8 ± 12 | 27.09 ± 1.3
323.15 K | 1386.03 ± 12 | 23.14 ± 1.1

CCOS(=O)(=O)[O-].CC[NH+]=C(N(C)C)N(C)C [2-ethyl-1,1,3,3-tetramethylguanidinium ethyl sulfate]
[1]
Settings | mass density [kg/m3] | viscosity [mPa·s]
293.15 K | 1170.76 ± 1.5 | 673.4 ± 300
298.15 K | 1167.24 ± 1.5 | 441.5 ± 170
303.15 K | 1163.76 ± 1.5 | 302.5 ± 95
308.15 K | 1160.28 ± 1.5 | 214.6 ± 54
313.15 K | 1156.8 ± 1.4 | 157.2 ± 31
318.15 K | 1153.33 ± 1.4 | 118.3 ± 18
323.15 K | 1149.87 ± 1.4 | 91.22 ± 9.6

CCO [ethanol]
[1]
Settings | mass density [kg/m3] | viscosity [mPa·s]
293.15 K | 789.62 ± 0.46 | 1.177 ± 0.047
298.15 K | 785.25 ± 0.47 | 1.071 ± 0.043
303.15 K | 780.89 ± 0.47 | 0.978 ± 0.04
308.15 K | 776.52 ± 0.48 | 0.895 ± 0.036
313.15 K | 772.12 ± 0.49 | 0.822 ± 0.033
318.15 K | 767.71 ± 0.49 | 0.756 ± 0.031
323.15 K | 763.26 ± 0.5 | 0.698 ± 0.028

CCO [ethanol] + CCOS(=O)(=O)[O-].CC[NH+]=C(N(C)C)N(C)C
[2]
Settings | mass density [kg/m3] | viscosity [mPa·s]
293.15 K | 789.62 ± 0.46 | 1.177 ± 0.047
298.15 K | 785.25 ± 0.47 | 1.071 ± 0.043
303.15 K | 780.89 ± 0.47 | 0.978 ± 0.04
308.15 K | 776.52 ± 0.48 | 0.895 ± 0.036
313.15 K | 772.12 ± 0.49 | 0.822 ± 0.033
318.15 K | 767.71 ± 0.49 | 0.756 ± 0.031
323.15 K | 763.26 ± 0.5 | 0.698 ± 0.028

CCO [ethanol] + CC[NH+]=C(N(C)C)N(C)C.O=S(=O)([N-]S(=O)(=O)C(F)(F)F)C(F)(F)F
[2]
Settings | mass density [kg/m3] | viscosity [mPa·s]
293.15 K | 789.62 ± 0.46 | 1.177 ± 0.047
298.15 K | 785.25 ± 0.47 | 1.071 ± 0.043
303.15 K | 780.89 ± 0.47 | 0.978 ± 0.04
308.15 K | 776.52 ± 0.48 | 0.895 ± 0.036
313.15 K | 772.12 ± 0.49 | 0.822 ± 0.033
318.15 K | 767.71 ± 0.49 | 0.756 ± 0.031
323.15 K | 763.26 ± 0.5 | 0.698 ± 0.028

CCCO [propan-1-ol]
[1]
Settings | mass density [kg/m3] | viscosity [mPa·s]
293.15 K | 803.49 ± 0.43 | 2.164 ± 0.087
298.15 K | 799.49 ± 0.44 | 1.948 ± 0.078
303.15 K | 795.46 ± 0.45 | 1.707 ± 0.069
308.15 K | 791.39 ± 0.45 | 1.525 ± 0.061
313.15 K | 787.29 ± 0.46 | 1.366 ± 0.055
318.15 K | 783.14 ± 0.46 | 1.228 ± 0.05
323.15 K | 778.93 ± 0.47 | 1.107 ± 0.045

CCCO [propan-1-ol] + CCOS(=O)(=O)[O-].CC[NH+]=C(N(C)C)N(C)C
[2]
Settings | mass density [kg/m3] | viscosity [mPa·s]
293.15 K | 803.49 ± 0.43 | 2.164 ± 0.17
298.15 K | 799.49 ± 0.44 | 1.948 ± 0.16
303.15 K | 795.46 ± 0.45 | 1.707 ± 0.14
308.15 K | 791.39 ± 0.45 | 1.525 ± 0.12
313.15 K | 787.29 ± 0.46 | 1.366 ± 0.11
318.15 K | 783.14 ± 0.46 | 1.228 ± 0.099
323.15 K | 778.93 ± 0.47 | 1.107 ± 0.089

CCCO [propan-1-ol] + CC[NH+]=C(N(C)C)N(C)C.O=S(=O)([N-]S(=O)(=O)C(F)(F)F)C(F)(F)F
[2]
Settings | mass density [kg/m3] | viscosity [mPa·s]
293.15 K | 803.49 ± 0.43 | 2.164 ± 0.087
298.15 K | 799.49 ± 0.44 | 1.948 ± 0.078
303.15 K | 795.46 ± 0.45 | 1.707 ± 0.069
308.15 K | 791.39 ± 0.45 | 1.525 ± 0.061
313.15 K | 787.29 ± 0.46 | 1.366 ± 0.055
318.15 K | 783.14 ± 0.46 | 1.228 ± 0.05
323.15 K | 778.93 ± 0.47 | 1.107 ± 0.045
